What was measured:
HDAC6 = HDAC6 (Homo sapiens (Human), UniProt Q9UBN7); assay: Tubulin acetylation cytoblot assay (A549 cells); type: cell-based; details: 17-18 h, concentration for 50% induction of acetylated tubulin, read-out: Tub-ac EC50
Experimental: Tubulin acetylation is a PD marker for HDAC6 inhibition. The extent of tubulin acetylation represents the inhibitory effect on HDAC6.
Novel compounds were tested for their ability to inhibit HDAC6 using a cell-based deacetylation assay. Tubulin acetylation was detected by the anti-acetylated tubulin antibody (Sigma) and horse radish peroxidase (HRP) conjugated secondary antibody (KangChen Bio. Tech.). […] 20 μl of diluted compound solution was transferred to the cell culture plate and incubated for 17-18 h. After medium removal and fixation by formaldehyde (3.7% paraformaldehyde in TBS), the cells in the plates were treated with 180 μl of −20° C. MeOH and incubated for 5 min at rt. The cell lysis was incubated with 75 μl of primary anti-acetylated tubulin antibody and secondary HRP conjugated antibody solution (1:750 anti-acetylated tubulin, 1:750 HRP conjugated anti-mouse IgG in antibody dilution buffer not containing sodium azide) for 4 h at 4° C. By adding the HRP substrate, enhanced chemiluminescence (ECL) reagent (GE Healthcare) generated luminescence corresponding to the level of tubulin acetylation. So that 75 μl of ECL was added into the wells and the luminescence from each well was immediately quantified by the plate reader. Based on the luminescence reading, the IC50s against HDAC6 of the tested compounds were calculated by plotting the curve with XLfit4.0 software. Inhibition %=[signal(sample)−Mean(bottom)]*100/[Mean(top)−Mean(bottom)]

recombinant human HDAC8 = recombinant human HDAC8 (Homo sapiens (Human), UniProt Q9BY41); assay: HDAC8 inhibition: recombinant HDAC8 fluorometric assay; type: biochemical; details: recombinant human HDAC8, substrate Ac-Arg-His-Lys-Lys(ε-acetyl)-AMC
Chain of recombinant human HDAC8 (Q9BY41 whole entry): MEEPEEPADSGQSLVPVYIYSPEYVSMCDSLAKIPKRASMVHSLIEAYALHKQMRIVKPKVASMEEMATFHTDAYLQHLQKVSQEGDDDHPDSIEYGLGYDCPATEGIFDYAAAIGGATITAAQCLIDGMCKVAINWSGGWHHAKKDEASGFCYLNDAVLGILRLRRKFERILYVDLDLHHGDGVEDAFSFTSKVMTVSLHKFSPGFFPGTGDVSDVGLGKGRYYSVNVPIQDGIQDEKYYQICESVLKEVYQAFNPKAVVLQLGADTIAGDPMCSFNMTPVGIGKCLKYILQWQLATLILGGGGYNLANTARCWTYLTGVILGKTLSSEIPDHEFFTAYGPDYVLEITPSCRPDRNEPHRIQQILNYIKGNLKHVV
Experimental: A competitive inhibitory assay of HDAC8 was carried out by using recombinant HDAC8 and a commercial substrate Ac-Arg-His-Lys-Lys(ε-acetyl)-AMC.
Compounds were tested for their ability to inhibit histone deacetylase 8 using an in vitro deacetylation assay. The enzyme source for this assay was recombinant human HDAC8 protein expressed and purified from insect cells. […] The substrate consisted of a commercial product Ac-Arg-His-Lys-Lys(ε-acetyl)-AMC (substrate is available from Cayman Chemical). […] In a detailed procedure, 8 μl of HDAC8 enzyme solution (0.125 μg/μl) was transferred to assay plates (CORNING 3676). 1 μl of half-log diluted compounds were added into wells and incubated for 15 min at rt. After that, 8 μl of substrate solution was transferred to the wells and incubated for 30 min at rt. After deacetylation of the substrate by incubation with HDAC8 enzyme, subsequent exposure to a developing reagent produced a fluorophore that was directly proportional to the level of deacetylation. So 4 μl of developer regent (Cayman 10006394) was added into the wells in the assay plates and incubated for 15 min. The fluorescence signal was measured by a FlexStation3 plate reader (excitation wave length 340-360 nm; emission wave length 440-465 nm). The IC50 was calculated after normalization and curve fitting using XLfit4.0 software. Inhibition %=[Mean(top)−signal(sample)]*100/[Mean(top)−Mean(bottom)].

[1] = tested on: p21 promoter-luciferase construct; assay: p21 reporter gene induction in HeLa cells transfected with p21 promoter-luciferase construct; type: cell-based; details: for p21 RP3: relative gene level of p21 induced compared to MS275 at 3 μM; for p21 RP10: relative level of p21 induced compared to MS275 at 10 μM; for p21 RP30: relative level of p21 induced compared to MS275 at 30 μM
Experimental: As a surrogate for in-cell HDAC1/2/3 inhibition, p21 induction was used as a counterscreen to evaluate the selectivity of the compounds in the present invention toward HDAC6 or HDAC8.
The novel compounds of the present invention were tested for their ability to induce p21 gene expression using a reporter gene assay involving HeLa cells transfected with a p21 promoter-luciferase construct. The p21 promoter contained the Sp1/Sp3 binding site for HDAC but not the upstream p53 binding site. Briefly, the day before transfection, HeLa cells were seeded at 11,000 cells/well in a 96-well culture plate and incubated at 37° C. in 5% CO2 overnight. A transfection media was prepared prior to transfection according to the following procedure: (1) 5 μl serum-free DMEM, 0.15 μl Fugene 6 reagent, 40 ng p21-luc, 10 ng GFP were mixed gently and incubated at rt for 30 minutes; (2), then 98 μl DMEM (with 10% FBS, 1% penicillin and streptomycin) was added to the DNA: Fugene 6 reagent complex and mixed gently. For transfection, the medium was removed and replaced with 100 μl/well transfection media which was prepared according to the procedure above. After incubating the cells for 24 hours at 37° C. in 5% CO2, fresh media and test compounds were added to the wells and the cells further incubated for 15 hours at 37° C. in 5% CO2. Cells were lysed by adding 80 μl/well of a cell culture lysis reagent (Promega). […] 100 μl luciferase assay reagent (Promega) was then added to every 20 μl cell lysate for luminometer detection. […] Induction activity for specific representative compounds can be found in Table 3.

Chain of HDAC6 (Q9UBN7 whole entry): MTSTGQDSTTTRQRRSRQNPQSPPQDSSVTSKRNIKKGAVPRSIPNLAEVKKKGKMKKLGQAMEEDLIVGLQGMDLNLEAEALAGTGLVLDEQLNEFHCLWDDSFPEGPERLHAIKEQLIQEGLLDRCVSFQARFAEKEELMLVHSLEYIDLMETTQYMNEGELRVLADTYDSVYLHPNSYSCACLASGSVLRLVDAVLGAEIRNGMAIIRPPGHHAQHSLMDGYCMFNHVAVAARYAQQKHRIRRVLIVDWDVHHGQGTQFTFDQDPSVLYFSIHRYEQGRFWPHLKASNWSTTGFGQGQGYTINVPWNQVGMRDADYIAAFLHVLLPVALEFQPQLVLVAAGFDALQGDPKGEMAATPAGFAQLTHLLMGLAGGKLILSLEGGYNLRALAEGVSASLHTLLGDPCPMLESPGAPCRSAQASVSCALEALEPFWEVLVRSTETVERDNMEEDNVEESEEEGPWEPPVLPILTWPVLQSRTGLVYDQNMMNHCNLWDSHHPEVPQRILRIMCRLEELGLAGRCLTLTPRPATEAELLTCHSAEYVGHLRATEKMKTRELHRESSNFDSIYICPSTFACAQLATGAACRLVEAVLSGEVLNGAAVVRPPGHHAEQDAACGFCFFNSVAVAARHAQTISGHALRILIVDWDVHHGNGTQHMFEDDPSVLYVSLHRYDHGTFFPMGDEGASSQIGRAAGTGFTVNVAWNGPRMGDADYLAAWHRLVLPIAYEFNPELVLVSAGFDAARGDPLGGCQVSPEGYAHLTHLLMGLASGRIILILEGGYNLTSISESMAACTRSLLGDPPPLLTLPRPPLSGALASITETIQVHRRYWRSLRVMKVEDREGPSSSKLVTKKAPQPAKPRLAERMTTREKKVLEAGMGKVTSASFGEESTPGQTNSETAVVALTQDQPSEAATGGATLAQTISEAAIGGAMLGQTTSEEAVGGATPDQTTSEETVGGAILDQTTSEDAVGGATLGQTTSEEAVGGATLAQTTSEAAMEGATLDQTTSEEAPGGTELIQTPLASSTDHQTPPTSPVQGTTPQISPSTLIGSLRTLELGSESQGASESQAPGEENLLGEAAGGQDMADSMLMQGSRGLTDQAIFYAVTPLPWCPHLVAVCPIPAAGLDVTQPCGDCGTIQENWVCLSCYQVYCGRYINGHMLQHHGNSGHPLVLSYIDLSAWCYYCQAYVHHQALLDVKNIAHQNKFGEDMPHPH

Compound | EC50 (HDAC6) | IC50 (recombinant human HDAC8) | p21 RP3 [1] | p21 RP10 [1] | p21 RP30 [1]
COc1ccc(-c2ccnc(NC3CCc4ccc(C(=O)NO)cc4C3)n2)cn1 (stereo not drawn) [Example 28, 7-[4-(6-Methoxy-pyridin-3-yl)-pyrimidin-2-ylamino]-5,6,7,8-tetrahydro-naphthalene-2-carboxylic acid hydroxyamide] | 5.47 µM | 1 µM | −0.20 | −0.19 | −0.24
O=C(/C=C/c1cccnc1)NC1CCc2ccc(C(=O)NO)cc2C1 (stereo not drawn) [Example 37, 7-((E)-3-Pyridin-3-yl-acryloylamino)-5,6,7,8-tetrahydro-naphthalene-2-carboxylic acid hydroxyamide] | – | 0.99 µM | −0.18 | −0.05 | –
Cc1ccc(-c2ccnc(NC3CCc4ccc(C(=O)NO)cc4C3)n2)cc1 (stereo not drawn) [Example 11, 7-(4-p-Tolyl-pyrimidin-2-ylamino)-5,6,7,8-tetrahydro-naphthalene-2-carboxylic acid hydroxyamide] | 5.1 µM | 0.8 µM | −0.13 | −0.18 | −0.18
O=C(NO)c1ccc2c(c1)CC(NS(=O)(=O)c1ccc(Cl)cc1)CN2 (stereo not drawn) [Example 60, 3-(4-Chloro-benzenesulfonylamino)-1,2,3,4-tetrahydro-quinoline-6-carboxylic acid hydroxyamide] | – | 1.46 µM | 0.46 | 0.10 | 0.04
O=C(NO)c1ccc2c(c1)CC(NS(=O)(=O)c1cccc(Cl)c1)CC2 (stereo not drawn) [Example 42, 7-(3-Chloro-benzenesulfonylamino)-5,6,7,8-tetrahydro-naphthalene-2-carboxylic acid hydroxyamide] | – | 0.16 µM | – | – | –
O=C(NO)c1ccc2c(c1)CC(NC(=O)c1ccc(-c3ccccc3)cc1)CN2 (stereo not drawn) [Example 59, 3-[(Biphenyl-4-carbonyl)-amino]-1,2,3,4-tetrahydro-quinoline-6-carboxylic acid hydroxyamide] | 7.99 µM | 2.85 µM | 0.20 | 0.08 | 0.15
O=C(NO)c1ccc2c(c1)CC(Nc1ccc(Br)cc1)CC2 (stereo not drawn) [Example 2, 7-(4-bromo-phenylamino)-5,6,7,8-tetrahydro-naphthalene-2-carboxylic acid hydroxyamide] | 5.47 µM | 0.68 µM | 0.26 | −0.06 | −0.04
O=C(NC1CCc2ccc(C(=O)NO)cc2C1)OCc1cccnc1 (stereo not drawn) [Example 38] | 0.93 µM | 1.27 µM | 0.15 | 0.05 | 0.02
O=C(NO)c1ccc2c(c1)CC(Nc1nccc(-c3ccc(F)c(Cl)c3)n1)CC2 (stereo not drawn) [Example 22, 7-[4-(3-Chloro-4-fluoro-phenyl)-pyrimidin-2-ylamino]-5,6,7,8-tetrahydro-naphthalene-2-carboxylic acid hydroxyamide] | 6 µM | 2.24 µM | −0.87 | −0.59 | −0.52
Cc1cncc(-c2ccnc(NC3CCc4ccc(C(=O)NO)cc4C3)n2)c1 (stereo not drawn) [Example 26, 7-[4-(5-Methyl-pyridin-3-yl)-pyrimidin-2-ylamino]-5,6,7,8-tetrahydro-naphthalene-2-carboxylic acid hydroxyamide] | 1.52 µM | 0.52 µM | 0.68 | 0.20 | −0.05
Cc1cc(Cl)ccc1-c1ccnc(NC2CCc3ccc(C(=O)NO)cc3C2)n1 (stereo not drawn) [Example 21, 7-[4-(4-Chloro-2-methyl-phenyl)-pyrimidin-2-ylamino]-5,6,7,8-tetrahydro-naphthalene-2-carboxylic acid hydroxyamide] | 9.53 µM | 2.15 µM | −0.24 | −0.28 | −0.32
O=C(NO)c1ccc2c(c1)CC(NS(=O)(=O)c1cccc(Cl)c1)CN2 (stereo not drawn) [Example 61, 3-(3-Chloro-benzenesulfonylamino)-1,2,3,4-tetrahydro-quinoline-6-carboxylic acid hydroxyamide] | – | 0.97 µM | 0.21 | 0.07 | 0.04
O=C(NO)c1ccc2c(c1)CC(Nc1nccc(-c3ccc4ccccc4c3)n1)CC2 (stereo not drawn) [Example 33, 7-(4-Naphthalen-2-yl-pyrimidin-2-ylamino)-5,6,7,8-tetrahydro-naphthalene-2-carboxylic acid hydroxyamide] | – | 3.78 µM | 0.19 | −0.20 | −0.25
O=C(NO)c1ccc2c(c1)CC(NS(=O)(=O)c1cccc(F)c1)CN2 (stereo not drawn) [Example 62, 3-(3-Fluoro-benzenesulfonylamino)-1,2,3,4-tetrahydro-quinoline-6-carboxylic acid hydroxyamide] | – | 1.14 µM | 0.13 | 0.02 | 0.01
COc1ccc(S(=O)(=O)NC2CNc3ccc(C(=O)NO)cc3C2)cc1OC (stereo not drawn) [Example 64, 3-(3,4-Dimethoxy-benzenesulfonylamino)-1,2,3,4-tetrahydro-quinoline-6-carboxylic acid hydroxyamide] | – | 1.22 µM | −0.02 | 0.06 | 0.04
O=C(NO)c1ccc2c(c1)CC(Nc1nccc(-c3ccc(Oc4ccccc4)cc3)n1)CC2 (stereo not drawn) [Example 23, 7-[4-(4-Phenoxy-phenyl)-pyrimidin-2-ylamino]-5,6,7,8-tetrahydro-naphthalene-2-carboxylic acid hydroxyamide] | – | 1.44 µM | 0.30 | 0.00 | −0.10
O=C(NO)c1ccc2c(c1)CC(Nc1ccccn1)CC2 (stereo not drawn) [Example 5, 7-(Pyridin-2-ylamino)-5,6,7,8-tetrahydro-naphthalene-2-carboxylic acid hydroxyamide] | – | 2.9 µM | – | – | –
O=C(NO)c1ccc2c(c1)CC(Nc1nccc(-c3cccnc3)n1)CN2 (stereo not drawn) [Example 53] | 11.8 µM | – | 0.18 | 0.03 | 0.02
O=C(NO)c1cc2c(cc1F)CCC(Nc1ncccn1)C2 (stereo not drawn) [Example 49, 3-Fluoro-7-(pyrimidin-2-ylamino)-5,6,7,8-tetrahydro-naphthalene-2-carboxylic acid hydroxyamide] | 4.3 µM | – | 0.50 | 0.08 | 0.00
O=C(NO)c1ccc2c(c1)CC(NS(=O)(=O)c1cccc(OC(F)(F)F)c1)CN2 (stereo not drawn) [Example 63, 3-(3-Trifluoromethoxy-benzenesulfonylamino)-1,2,3,4-tetrahydro-quinoline-6-carboxylic acid hydroxyamide] | – | 1.61 µM | 0.11 | 0.04 | 0.01

From patent US8716285B2, “N-hydroxy-benzamids for the treatment of cancer” (Hoffmann-La Roche Inc., priority 2010, dated 2014)
